Measured values reported in ChEMBL document CHEMBL2074036, “Renal transport of organic compounds mediated by mouse organic anion transporter 3 (mOat3): further substrate specificity of mOat3” (Drug Metab Dispos, 2004).

B1: Organic anion transporter 3 (Mus musculus) (protein)
chain: MTFSEILDRVGSMGPFQYLHVTLLALPILGIANHNLLQIFTATTPDHHCRPPPNASLEPWVLPLGPNGKPEKCLRFVHLPNASLPNDTQGATEPCLDGWIYNSTRDTIVTEWDLVCGSNKLKEMAQSVFMAGILVGGPVFGELSDRFGRKPILTWSYLLLAASGSSAAFSPSLTVYMIFRFLCGCSISGISLSTIILNVEWVPTSTRAISSTTIGYCYTIGQFILPGLAYAVPQWRWLQLSVSAAFFIFSLLSWWVPESIRWLVLSGKFSKALKTLQRVATFNGKKEEGEKLTVEELKFNLQKDITSAKVKYGLSDLFRVSILRRVTFCLSLAWFATGFAYYSLAMGVEEFGVNIYILQIIFGGVDIPAKFITILSISYLGRRITQGFLLILAGVAILALIFVSSEMQLLRTALAVFGKGCLSGSFSCLFLYTSELYPTVLRQTGMGISNIWARVGSMIAPLVKITGELQPFIPNVIFGTMTLLGGSAAFFLLETLNRPLPETIEDIQDWYQQTKKTKQEPEAEKASQTIPLKTGGP

Experiments:
[1] = molecular target: T1, Oat3 (organic anion transporter 3) (Mus musculus, UniProt O88909); assay: TP_TRANSPORTER: inhibition of PHA uptake (PHA: 1000uM) in mOat3-expressing oocytes; type: functional, cell-based, Oocyte; set-up: scale not given: the % may be the effect or the level left; conditions: probe PHA (1000 uM)
T1 sequence (O88909 whole entry): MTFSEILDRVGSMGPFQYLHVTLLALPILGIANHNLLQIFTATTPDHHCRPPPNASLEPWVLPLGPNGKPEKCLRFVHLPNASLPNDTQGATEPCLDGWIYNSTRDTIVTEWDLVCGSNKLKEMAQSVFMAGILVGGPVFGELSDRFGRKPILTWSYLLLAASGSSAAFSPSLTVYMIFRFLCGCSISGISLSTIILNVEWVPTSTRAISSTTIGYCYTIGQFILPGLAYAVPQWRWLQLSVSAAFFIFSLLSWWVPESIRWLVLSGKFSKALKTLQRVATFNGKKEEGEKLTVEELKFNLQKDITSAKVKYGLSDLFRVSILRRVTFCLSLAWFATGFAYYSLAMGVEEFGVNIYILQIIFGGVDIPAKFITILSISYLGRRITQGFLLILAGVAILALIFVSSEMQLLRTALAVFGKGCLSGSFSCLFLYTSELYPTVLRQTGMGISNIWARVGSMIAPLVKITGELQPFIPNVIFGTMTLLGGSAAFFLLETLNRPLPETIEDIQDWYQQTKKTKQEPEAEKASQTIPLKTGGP

[2] = molecular target: T2, Organic anion transporter 3 (Mus musculus, UniProt O88909); assay: (§1) TP_TRANSPORTER: uptake in mOat3-expressing oocytes; type: functional, cell-based; conditions: oocyte
T2 sequence (O88909 whole entry): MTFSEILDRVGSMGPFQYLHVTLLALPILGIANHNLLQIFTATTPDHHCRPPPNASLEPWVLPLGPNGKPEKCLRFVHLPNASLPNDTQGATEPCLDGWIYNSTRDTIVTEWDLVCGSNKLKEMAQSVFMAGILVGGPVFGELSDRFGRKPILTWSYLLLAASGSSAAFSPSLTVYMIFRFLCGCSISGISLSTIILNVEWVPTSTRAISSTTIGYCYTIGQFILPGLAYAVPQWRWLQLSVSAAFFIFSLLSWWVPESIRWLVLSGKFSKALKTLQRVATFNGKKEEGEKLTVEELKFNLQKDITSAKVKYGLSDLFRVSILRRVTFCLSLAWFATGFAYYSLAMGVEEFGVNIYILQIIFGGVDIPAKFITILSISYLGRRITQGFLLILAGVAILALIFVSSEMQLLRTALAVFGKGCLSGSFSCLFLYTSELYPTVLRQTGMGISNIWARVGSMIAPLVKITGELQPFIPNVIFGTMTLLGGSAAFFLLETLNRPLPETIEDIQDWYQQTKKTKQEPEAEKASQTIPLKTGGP

[3] = molecular target: T1, Oat3 (organic anion transporter 3); assay: TP_TRANSPORTER: inhibition of PHA uptake (PHA: 1000uM) by P-aminohippuric acid at a concentration of 10uM in mOat3-expressing oocytes; type: functional, cell-based, Oocyte; set-up: scale not given: the % may be the effect or the level left; conditions: probe PHA (1000 uM), read-out: Activity
[4] = substrate: C[N+](C)(C)C[C@H](O)CC(=O)[O-]; assay: as §1; type: functional, cell-based, Oocyte
[5] = substrate: O=c1[nH]cc(F)c(=O)[nH]1; assay: as §1; type: functional, cell-based, Oocyte
[6] = substrate: Sc1ncnc2nc[nH]c12; assay: as §1; type: functional, cell-based, Oocyte

| Molecule | Activity [1] | Activity [2] | other results |
| --- | --- | --- | --- |
| CCOC(=O)[C@H](CCc1ccccc1)N[C@@H](C)C(=O)N1CCC[C@H]1C(=O)O | 45% |  |  |
| Oc1ncnc2[nH]ncc12 [ALLOPURINOL] |  | substrate [] |  |
| Nc1ccc(C(=O)NCC(=O)O)cc1 [AMINOHIPPURIC ACID] |  | substrate [] | activity at 10 µM [3]: 20% |
| CN/C(=N/CCSCc1nc[nH]c1C)NC#N [CIMETIDINE] | 65% |  |  |
| CCCCC[C@H](O)/C=C/[C@H]1[C@H](O)CC(=O)[C@@H]1C/C=C\CCCC(=O)O [DINOPROSTONE] |  | substrate [] |  |
| CCCCC[C@H](O)/C=C/[C@@H]1[C@@H](C/C=C\CCCC(=O)O)[C@@H](O)C[C@H]1O [DINOPROST] |  | substrate [] |  |
| C[C@]12CC[C@@H]3c4ccc(OS(=O)(=O)O)cc4CC[C@H]3[C@@H]1CCC2=O [ESTRONE SULFURIC ACID] |  | substrate [] |  |
| CC(C)Cc1ccc(C(C)C(=O)O)cc1 (stereo not drawn) [IBUPROFEN] | 80% |  |  |
| CN1C(C(=O)Nc2ccccn2)=C(O)c2sccc2S1(=O)=O [TENOXICAM] | 55% |  |  |
| B1 |  |  | Km [4]: 0.0619 µM; Km [5]: 0.0539 µM; Km [6]: 4.01 µM |
